Source: patent publication US20090023801A1, “INHIBITORS OF BETA AMYLOID PRODUCTION” (Wyeth, priority 2007, published 2009)

Legend:
[1] = system: Aβ42; assay: Aβ-lowering MSD electrochemiluminescent assay of conditioned media from CHO cells expressing human APP (Aβ42); assay type: cell-based; conditions: MSD electrochemiluminescent assay, hAPP-REPNL751 CHO cells; read-out: Aβ42 EC50 for inhibition of Aβ42
Description: (§1) The activity of compounds in lowering the generation of Aβ40 and Aβ42, the most abundant forms of beta amyloid, from APP (amyloid precursor protein) was measured in an electrochemiluminescent (ECL) assay of conditioned media from chinese hamster ovary (CHO) cells stably expressing the human amyloid precursor protein (APP) reporter construct, hAPP-REPNL751 (Sughir, R. et al.; J. Biolog. Chem (1992) 267: 25602-25608). Aβ peptides were secreted at high levels into cell culture media by cells carrying the human APP transgene; compounds were tested for their capacity to modulate this production. The Aβ peptide in the conditioned medium was quantitated by a sandwich immunoassay with the MSD ECL detection system. Cell metabolism was measured using a 3-(4,5-dimethylthiazol-2-yl)-5-(3-carboxymethoxypheny)-2-(4-sulfophenyl)-2H-tetrazolium, inner salt (MTS) salt kit (which measures the mitochondrial activity of cells by the bioreduction of Owen's reagent). This assay consists of the following protocol:
(§2) 1. hAPP-REPNL751CHO cells were seeded into 96 well plates and incubated until about 60-70% confluence.
(§3) 2. Medium was removed, cells were washed, and fresh serum-free medium (Ultraculture) was put on cells.
(§4) 3. Compounds were diluted and then added to the cell medium.
(§5) 4. Cells were incubated, with compounds, for indicated times.
(§6) 5. Streptavidin coated Meso Scale Discover (MSD) plates (MSD standard MULTI-ARRAY® 96 plate, cat.# P11SA-1) were washed […] with TTBS (Tris-buffered saline, the TWEEN® 20 reagent).
(§7) 6. 20 μL conditioned medium were removed from the cells and added to the TTBS prewashed MSD plates.
(§8) 7. Standard curve dilutions of synthetic Aβ40 and Aβ42 were prepared and added to the MSD plates.
(§9) 8. A reagent mix was prepared in 1% MSD Blocker A (appropriate concentration of biotinylated 6E10 antibody, detection antibodies to Aβ40, Aβ42, and MSD ruthinylated tag antibody).
(§10) 9. 20 μL reagent mix was distributed to sample plate.
(§11) 10. Plates were incubated with shaking overnight at 4° C.
(§12) 11. Plates were washed 3× with TTBS.
(§13) 12. 150 μL read buffer was added per well (MSD® Read Buffer T, cat#R92TC-2, made 1× with distilled water).
(§14) 13. Plates were read in a MSD® plate reader within 2 hours.
(§15) Assays were accepted or rejected based upon specific performance criteria, including regression coefficient of standard curve, adequate signal to noise ratio, sample signals lying within the range of the standard curve, etc.: the specific parameters were established for each tissue type prior to performing an assay, and were included in the full analytical procedure.
(§16) Plate data from both assays (MTS and MSD® ELISA) were transferred into a Microsoft EXCEL® spreadsheet to determine the toxicity, and inhibition caused by the compounds. Standard curves of Aβ were generated using LSW™ toolbar Hill slope model 42, with 1/y weighting (general sigmoidal curve with Hill slope, a to d; y=(a−d)/(1+(x/c)̂b)+d). Inhibition data were expressed as a percent of the average of the Aβ values in the vehicle treated wells (all values are background subtracted), using LSW™ toolbar Hill Slope model 68 (ligand-receptor binding/sigmoidal, with Hill slope and Bmax to 0; y=Bmax*(1−(x̂n/(K̂n+x̂n))), after raw values were translated/transformed into absolute Aβ values utilizing the standard curve generated as described above (e.g. back calculate absolute Aβ values from the raw values utilizing standard curve). Onboard controls to verify assay performance were checked to assure that amyloid is within linear detection range of the assay, that cells were expressing correctly, and that the MSD itself was performing according to quality control (QC) standards.
(§17) % Inhibition>50% may be considered a positive response or an interesting result in this assay; EC50 determination were determined.
(§18) The beta amyloid inhibitory activity of compounds of formula (I) was determined using the MSD ECL assay. Inhibition of Notch processing was measured using the stable transfection reporter assay See, Table 1 below.

[2] = system: Notch; assay: Stable transfection Notch reporter assay (HES1-SEAP, P8H6 CHO-K1 cells); assay type: cell-based; conditions: CHO-K1; stable transfection Notch reporter assay, 48 hours; read-out: Notch EC50 for inhibition of Notch
Description: A concern with compounds that lower beta amyloid synthesis by targeting the γ-secretase enzyme is that this enzyme also is involved in the cleavage of other substrates besides APP especially the Notch substrate. […] Thus, a selectivity of APP cleavage over Notch cleavage is desired in order to avoid G.I. side effects. The activity of compounds in cleaving Notch can be measured in a whole cell functional Notch assay. This is an assay to determine the effects of compounds on the S3 (γ-secretase like) processing of Notch. […] SEAP transactivation is then detected by luminescent assay. The assay consists of the following protocol:
• (i) Materials: The P8H6 inducible stable cell line was derived from T-REX™ CHO-K1, stably expressing Tet repressor, Notch (pZX1) and HES1-SEAP (pZX2) reporter constructs. A Wallac 1450 Victor™ Luminescence Counter was used to measure luminescent signal. All other materials and reagents were of highest quality available and were all from commercial sources.
(ii) Construct Description: • pZX1: Mouse Notch1 with deleted extracellular domain cloned at Hind III/Xho I sites of pcDNA5/TO vector: Ampicillin Resistance for bacteria, hygromycin resistance for cells. • pZX2: Mouse HES1 promoter together with reporter gene SEAP cloned at Not I/Apa I sites of pcDNA3.1 with deletion of CMV promoter.
(iii) Procedure: • 1. P8H6 cells were grown in Ham's F12 complete growth media containing 10% FBS (reduced tetracycline), 2 mM of L-glutamine, 1 mg/mL of hygromycin, 1 mg/mL of the GENETICIN® antibiotic, 10 μg/mL of Blasticidin and 1% Penicillin-Streptomycin were supplemented with doxycline with final induction concentration of 0.2 μg/mL. The cells were seeded in 96-well tissue culture plate at 8000/well. • 2. Test compounds in 0.2% DMSO/25 mM HEPES buffer were diluted at final working concentration of 20 μM, 6.7 μM, 2.2 μM, 741 nM, 247 nM, 82 nM, 27 nM, 9 nM and 3 nM. Diluted compounds then were added to P8H6 cells in 96-well tissue culture plates. For vehicle samples, the same volume of 0.2% DMSO/25 mM HEPES buffer was added. • 3. Cells were incubated at 37° C., 5% CO2 for 48 hours. • 4. SEAP levels in the conditioned media were assessed using the Clontech GREATESCAPE™ SEAP Chemiluminescence detection kit according to the manufacturer's instruction. Briefly, 15 μL of conditioned media were mixed with 45 μL of the dilution buffer and incubated at 65° C. for 45 minutes. After cooling, assay buffer was added and the sample was incubated with the CSPD® substrate. • 5. Luminescence was measured in a Wallac 1450 VICTOR™ luminescence counter.
EC50 was the compound concentration that was estimated to provide a 50% reduction of maximum response in Notch induced SEAP levels. An EC50 from a given assay may only be used for averaging if it has met the following criteria: • 1. There is a lower dose in the assay which gives a % Notch Activity>60% (bracketing lower dose). • 2. There is a higher dose in the assay which gives a % Notch Activity<30% (bracketing higher dose), and the maximum inhibition is reached (e.g., a given compound might achieve 80% inhibition (% Notch activity is about 20%) over several doses, and therefore 20% would be considered the maximum inhibition.
Data were analyzed in Microsoft EXCEL® format. EC50 was calculated by LSW using sigmoidal inhibition from B0 to nsb model (model 59). Each assay plate contained a dose response curve for the reference compound 5-chloro-N-[(1S,2R)-2-ethyl-4,4,4-trifluoro-1-(hydroxymethyl)butyl]thiophene-2-sulfonamide. This compound is discussed in International Patent Publication No. WO 2004/092155. The following data is not shown in that publication.
as §18

[3] = system: Aβ40; assay: Aβ-lowering MSD electrochemiluminescent assay of conditioned media from CHO cells expressing human APP (Aβ40); assay type: cell-based; conditions: MSD electrochemiluminescent assay, hAPP-REPNL751 CHO cells; read-out: Aβ40 EC50 for inhibition of Aβ40
Description: as §1, §2, §3, §4, §5, §6, §7, §8, §9, §10, §11, §12, §13, §14, §15, §16, §17, §18

Compound	melting point [°C]	EC50 [1] [nM]	EC50 [2] [nM]	EC50 [3] [nM]
O=S(=O)(N[C@H](CO)[C@@H](c1ccccc1)C(F)(F)F)c1ccc(Cl)cc1 [Example 6, 4-Chloro-N-[(1S,2R)-3,3,3-trifluoro-1-(hydroxymethyl)-2-phenylpropyl]benzenesulfonamide]	129 to 131	1900	> 20000	1330
O=S(=O)(N[C@H](CO)[C@@H](c1ccccc1)C(F)(F)F)c1ccc(Cl)s1 [Example 4, 5-Chloro-N-[(1S,2R)-3,3,3-trifluoro-1-(hydroxymethyl)-2-phenylpropyl]thiophene-2-sulfonamide]		197	3750	238
O=S(=O)(N[C@H](CO)[C@@H](c1ccc(F)cc1)C(F)(F)F)c1ccc(Cl)s1 (relative stereo) [Example 9, 5-Chloro-N-[(1S*,2R*)-3,3,3-trifluoro-2-(4-fluorophenyl)-1-(hydroxymethyl)propyl]thiophene-2-sulfonamide]		178	> 20000	187
